# Data as given in US20230301948A1, “REDUCTION OF VIRAL INFECTIONS” (PHOXGEN LIMITED, priority 2020, published 2023).
# Like-named read-outs stand apart in the source and are kept apart here. Marks after values point to notes of the source that are not given here.
# Key:
# [1] = biological target: T1, cathepsin L protease (Homo sapiens, UniProt P07711); assay type: biochemical
# T1 construct: purchased BPS Bioscience
# [2] = biological target: T2, SpikeS1-ACE2 interaction (UniProt P0DTC2+Q9BYF1); test: biochemical; assay type: binding, SARS-CoV-2; conditions: read-out: Percentage inhibition (wrt 100% initial activity)
# T2 construct: Rabbit Fc-tagged SARS-Cov-2 Spike S1 RBD; purchased Cayman Chemical Company
# T1 sequence (P07711 114-333): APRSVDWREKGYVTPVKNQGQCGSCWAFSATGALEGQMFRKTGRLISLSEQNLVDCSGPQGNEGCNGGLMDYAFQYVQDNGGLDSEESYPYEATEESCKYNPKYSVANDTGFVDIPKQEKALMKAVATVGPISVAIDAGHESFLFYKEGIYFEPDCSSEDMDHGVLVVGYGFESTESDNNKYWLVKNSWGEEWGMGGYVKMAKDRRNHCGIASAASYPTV
Compound,Percentage inhibition ([1]; 0.0001 µM),Percentage inhibition ([1]; 0.001 µM),Percentage inhibition ([1]; 0.01 µM),Percentage inhibition ([1]; 0.1 µM),inhibition at 0.01 µg/mL ([2]; 0.01 µg/ml),inhibition at 0.1 µg/mL ([2]; 0.1 µg/ml),inhibition at 1 µg/mL ([2]; 1 µg/ml),inhibition at 10 µg/mL ([2]; 10 µg/ml),inhibition at 50 µg/mL ([2]; 50 µg/ml)
"CC(C)C[C@H](NC(=O)[C@H]1O[C@@H]1C(=O)O)C(=O)NCCCCN=C(N)N [Composition E-64, E-64]",-15.5%,-1.1%,17.2 ** %,56.3 ** %,–,–,–,–,–
Cc1cc(O)c2c(c1)C(=O)c1cc(O)cc(O)c1C2=O [Emodin],–,–,–,–,35.5%,38.9%,44.3%,48.9%,62.8%
